One series deals with Wnt3a 3′UTR. The series can be described thus: Luciferase reporter assay, pGL3-3′UTR cotransfected with miR oligos. The format is cell-based, human. The conditions noted are these: K562 cells, 25 pmol oligo, 48 hours post-transfection, vs scrambled oligos. How it is done:
(§1) 3′UTR segments of Bcl-2, cyclin D1 and Wnt3a were amplified by PCR from normal human genomic DNA and subcloned into the 3′UTR of the firefly luciferase coding sequence into pGL3-Promoter (Promega), see Supplementary Methods. Then K562 (5×10^4 cells per well) were transfected using Lipofectamine 2000 (Invitrogen) following the manufacturer's instructions. The transfection mix included: (a) 0.8 μg of pGL3-3′UTR plasmid and 50 ng of the control vector pRL-TK (Promega); (b) 25 pmol of either non-targeting RNA control (scrambled) or miR-15a or miR-16 oligonucleotides (Ambion). Forty-eight hours post-transfection, firefly and renilla luciferase activities were measured using the Dual Luciferase Assay kit (Promega). Transfection efficiencies were normalized by calculating the ratio of firefly to renilla. For each construct the relative luciferase activities were calculated by dividing the values obtained in the transfection of miR-15a and miR-16 by those of miR scrambled. Each experiment was performed in duplicate and replicated five times.
(§2) The miR-15a/miR-16 target genes UTRs were cloned in the Xba I site of pGL3 promoter, immediately downstream from the stop codon of the luciferase coding sequence. For Bcl-2, a 3′UTR of 1329 bp fragment was amplified, corresponding to residues 2446-3774 of Genbank Acc No M14745. For cyclin D1 3′UTR, a 1036 bp fragment was amplified ([…] of No NM_053056). For Wnt3a 3′UTR, a 906 bp fragment was amplified (residues 2026-2932 of No NM_033131.2). For 3′UTR cyclin D1 and Wnt3a mutagenesis, a five nucleotide mutation was inserted in the “seed” sequences interacting with miR-15a and miR-16 (see FIGS. 13A-C). Modified and HPLC purified oligonucleotides (Invitrogen) were used for amplification and mutagenesis, performed with Pfu enzyme following the in vitro mutagenesis kit protocol (Invitrogen). Transfection efficiencies of luciferase assays were normalized by calculating the ratio firefly/renilla. For each construct the relative luciferase activities were obtained by dividing the values obtained in the transfection of miR-15a and miR-16 by those of the non targeting miR scrambled. Each experiment was performed in duplicate and replicated five times.
(§3) To validate our targets, we subcloned the 3′UTR of these genes at the 3′ of the cDNA encoding luciferase in an expression construct and performed cotransfection experiments with miR-15a/miR-16. We narrowed our analysis to 1 kb regions harbouring the putative miR-15a/miR-16 target sites. The Bcl-2 3′UTR was tested in parallel as positive control. Luciferase assay was performed by cotransfecting pGL3-3′UTR vectors along with synthetic miR-15a, miR-16 and a control miR with a scrambled sequence.
For orientation: A reporter such as luciferase makes a cellular process visible.

The next series deals with cyclin D1 3′UTR. The series is described as above. The format is cell-based, human. The conditions noted are these: K562 cells, 25 pmol oligo, 48 hours post-transfection, vs scrambled oligos. How it is done:
as §1, §2, §3

The next series relates to Bcl-2 3′UTR. The series can be described thus: Luciferase reporter assay, pGL3-3′UTR cotransfected with miR oligos (positive control). The following applies: K562 cells, 25 pmol oligo, 48 hours post-transfection, vs scrambled oligos. The format is cell-based, human. How it is done:
as §1
The miR-15a/miR-16 target genes UTRs were cloned in the Xba I site of pGL3 promoter, immediately downstream from the stop codon of the luciferase coding sequence. For Bcl-2, a 3′UTR of 1329 bp fragment was amplified, corresponding to residues 2446-3774 of Genbank Acc No M14745. […]

The next series has as its system Pim-1 UTR. The series can be described thus: Luciferase reporter assay, pGL3-3′UTR cotransfected with miR oligos. The conditions noted are these: K562 cells, 48 hours post-transfection, vs scrambled oligos. The class given is cell-based, human.
The next series concerns LNCaP cells. The conditions noted are these: 10 ng/ml.

Like-named read-outs stand apart in the source and are kept apart here.

Experimental for LNCaP cells: FIG. 12A Evaluation of cell death and caspase activation in RWPE-1 cells infected with TW3′ or decoy15/16 vectors and treated with 10 ng/ml of docetaxel. Caspase activation was measured after 4 h of treatment. FIG. 12B Evaluation of cell death and caspase activation in LNCaP cells infected with TW or TWmiR-15a/miR-16 vectors and exposed to 10 ng/ml of docetaxel. FIG. 12C-D Evaluation of cell death and caspase activation in miR15a/miR-16 defective or non-defective (normal) primary tumor cells transduced as indicated and treated with 10 ng/ml docetaxel. FIG. 12C. Cell death was measured after 24 h exposure to docetaxel. FIG. 12D. Caspase activation in LNCaP and primary tumor cells was measured after 18 h of treatment. Data are mean±s.d. of at least three independent experiments for each group.
Cell death was evaluated by trypan blue staining, PI staining and flow cytometry analysis, Apo-percentage assay (Biocolor) and Cell Titer kit (Promega). Caspase activation was detected using APO-one Homogeneous Caspase3/7 Assay Kit (Promega).

As to “miR-16: mature miR 16, SEQ ID NO. 5, 5′-UAGCAGCACGUAAAUAUUGGCG-3′; synthetic oligonucleotide (Ambion) in reporter assays (listed as RNA, chemistry not given here; listed as Homo sapiens)”, the Luciferase reporter activity result in the series with Wnt3a 3′UTR is reported as “consistent reduction in reporter activity”; in the series on cyclin D1 3′UTR, “consistent reduction in reporter activity”; with Bcl-2 3′UTR it was “consistent reduction in reporter activity”; in the series on Pim-1 UTR it was “non-targeted region”.

As to `CC(=O)O[C@@]12CO[C@@H]1C[C@H](O)[C@@]1(C)C(=O)[C@H](O)C3=C(C)[C@@H](OC(=O)[C@H](O)[C@@H](NC(=O)OC(C)(C)C)c4ccccc4)C[C@@](O)([C@@H](OC(=O)c4ccccc4)[C@H]21)C3(C)C` [docetaxel], the figures for the “Cytotoxic activity of docetaxel” value in the series on LNCaP cells (empty vector-transduced LNCaP cells) and in the series with LNCaP cells (miR-15a/miR-16 reconstituted LNCaP cells) were “scarcely sensitive” and “massively killed”, respectively.

Take “miR-15a: mature miR 15, SEQ ID NO 4, 5′-UAGCAGCACAUAAUGGUUUGUG-3′; synthetic oligonucleotide (Ambion) in reporter assays (listed as RNA, chemistry not given here; listed as Homo sapiens)”: the Luciferase reporter activity entry in the series on Wnt3a 3′UTR is “consistent reduction in reporter activity”; with cyclin D1 3′UTR, “consistent reduction in reporter activity”; in the series on Bcl-2 3′UTR, “consistent reduction in reporter activity”; in the series on Pim-1 UTR it was “non-targeted region”.
